Data published in patent publication US11584714B2 (priority 2018, dated 2023).
Structures can show the parent of a compound that is named as a salt.

What follows are molecules tested against MASP-2 (CCP1-CCP2-SP) (Homo sapiens (Human), UniProt O00187) (assay: biochemical). Conditions: not given.
Assay type: biochemical

Chain of MASP-2 (CCP1-CCP2-SP) (O00187 445-686): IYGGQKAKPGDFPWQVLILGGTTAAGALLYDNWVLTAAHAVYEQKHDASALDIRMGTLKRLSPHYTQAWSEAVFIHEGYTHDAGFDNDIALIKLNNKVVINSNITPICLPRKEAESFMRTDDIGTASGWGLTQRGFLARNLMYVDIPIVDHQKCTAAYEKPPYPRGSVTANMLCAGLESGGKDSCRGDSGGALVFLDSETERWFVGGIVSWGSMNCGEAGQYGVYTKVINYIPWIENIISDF

Compound	Ki
Nc1ccc2[nH]c(Cc3nc4cc(N)ccc4[nH]3)nc2c1 [compound 2006]	> 25000 nM
N=C(N)c1ccc2[nH]c(-c3nc4ccccc4[nH]3)nc2c1 [compound 2009, 1H,1′H-[2,2′-bibenzo[d]imidazole-5-carboximidamidedihydrochloride]	> 25000 nM

Same assay, conditions: +Zn

Compound	MASP-2 versus thrombin selectivity
Nc1ccc2[nH]c(Cc3nc4cc(N)ccc4[nH]3)nc2c1 [compound 2006]	+ (+Zn) (1.0 to 5.0-fold)

Same assay, conditions: +Zn; read-out: MASP-2 Ki

Compound	Ki
Nc1ccc2[nH]c(Cc3nc4cc(N)ccc4[nH]3)nc2c1 [compound 2006]	< 10000 nM
N=C(N)c1ccc2[nH]c(-c3nc4ccccc4[nH]3)nc2c1 [compound 2009, 1H,1′H-[2,2′-bibenzo[d]imidazole-5-carboximidamidedihydrochloride]	< 500 nM

Same assay, conditions: MASP-2 inhibition versus thrombin

Compound	MASP-2 vs. thrombin selectivity
C[C@H](NC(=O)[C@H](N)CCc1cccc(Cl)c1)C(=O)NCc1ccc(C(=N)N)cc1 [compound 1081]	** (5.0 to 25-fold)
C[C@H](NC(=O)[C@H](N)CCc1ccccc1)C(=O)NCc1ccc(C(=N)N)cc1 [compound 1024]	** (5.0 to 25-fold)
C[C@H](NC(=O)[C@H](N)CCc1cc(Cl)cc(Cl)c1)C(=O)NCc1ccc(C(=N)N)cc1 [compound 1118]	** (5.0 to 25-fold)
C[C@H](NC(=O)[C@@H](CCc1ccccc1)NCc1ccc(C(=O)N2CCOCC2)cc1)C(=O)NCc1ccc(C(=N)N)cc1 [compound 1153]	**** (>100-fold)
C[C@H](NC(=O)[C@H]1Cc2c([nH]c3ccccc23)CN1)C(=O)NCc1ccc(C(=N)N)cc1 [compound 1097]	*** (25 to 100-fold)

Same assay, conditions: read-out: MASP-2 Ki

Compound	Ki
N=C(N)c1ccc(CNC(=O)C(CF)NC(=O)[C@H](N)CCc2ccccc2)cc1 (stereo partly drawn) [compound 1050, (2R)-2-Amino-N-(1-((4-carbamimidoylbenzyl)amino)-3-fluoro-1-oxopropan-2-yl)-4-phenylbutanamide Dihydrochloride]	< 500 nM
C[C@H](NC(=O)[C@H](N)CCc1ccc(C(F)(F)F)cc1)C(=O)NCc1ccc(C(=N)N)cc1 [compound 1119, (R)-2-Amino-N—((S)-1-((4-carbamimidoylbenzyl)amino)-1-oxopropan-2-yl)-4-(4-(trifluoromethyl)phenyl)butanamide Dihydrochloride]	< 500 nM
C[C@H](NC(=O)[C@H](N)CCc1ccccc1)C(=O)NCc1cccc(Cl)c1 [compound 1021]	< 10000 nM
N[C@H](CCc1ccccc1)C(=O)N1CCC[C@H]1C(=O)NCc1cc(Cl)ccc1O [compound 1079, (S)-1-((R)-2-Amino-4-phenylbutanoyl)-N-(5-chloro-2-hydroxybenzyl)pyrrolidine-2-carboxamide]	< 500 nM
Cc1ccc(-c2c[nH]c(C(=O)N[C@@H](C)C(=O)NCc3ccc(C(=N)N)cc3)c2)cc1F [compound 1235, (S)—N-(1-((4-Carbamimidoylbenzyl)amino)-1-oxopropan-2-yl)-4-(3-fluoro-4-methylphenyl)-1H-pyrrole-2-carboxamide]	< 500 nM
C[C@H](NC(=O)[C@@H](CCc1ccccc1)NCc1ccc(N2CCNCC2)cc1)C(=O)NCc1ccc(C(=N)N)cc1 [compound 1148, (R)—N—((S)-1-((4-Carbamimidoylbenzyl)amino)-1-oxopropan-2-yl)-4-phenyl-2-((4-(piperazin-1-yl)benzyl)amino)butanamide]	< 500 nM
C[C@H](NC(=O)[C@H]1C=C(c2ccccc2)CN1)C(=O)NCc1ccc(C(=N)N)cc1 [compound 1032]	< 500 nM

Same assay, conditions: selectivity for MASP-2 inhibition versus thrombin

Compound	MASP-2 vs. thrombin selectivity
Cc1ccc(-c2c[nH]c(C(=O)N[C@@H](C)C(=O)NCc3ccc(C(=N)N)cc3)c2)cc1F [compound 1235, (S)—N-(1-((4-Carbamimidoylbenzyl)amino)-1-oxopropan-2-yl)-4-(3-fluoro-4-methylphenyl)-1H-pyrrole-2-carboxamide]	*** (≥25 to <100-fold)
C[C@H](NC(=O)[C@H](N)CCc1ccccc1)C(=O)NCc1cc(Cl)ccc1C#N [compound 1313, Trifluoroacetate salt]	* (≥1.0 to <5.0-fold)
COc1cc(C[C@@H]2CN[C@@H](C(=O)N[C@@H](C)C(=O)NCc3cc(Cl)ccc3-n3cnnn3)C2)cc(OC)c1 [compound 1419, (2R,4S)—N—((S)-1-((5-Chloro-2-(JH-tetrazol-1-yl)benzyl)amino)-1-oxopropan-2-yl)-4-(3,5-dimethoxybenzyl)pyrrolidine-2-carboxamide Trifluoroacetate salt]	* (≥1.0 to <5.0-fold)

Each molecule was assayed against human α-thrombin (Homo sapiens (Human), UniProt P00734) (assay: Enzymatic assay for thrombin (Boc-VPR-AMC substrate)). Conditions: +EDTA; read-out: Thrombin Ki.
Assay type: biochemical

Compound	Ki
Nc1ccc2[nH]c(Cc3nc4cc(N)ccc4[nH]3)nc2c1 [compound 2006]	> 25000 nM

Same assay, conditions: +Zn; read-out: Thrombin Ki

Compound	Ki
Nc1ccc2[nH]c(Cc3nc4cc(N)ccc4[nH]3)nc2c1 [compound 2006]	> 25000 nM

Same assay, conditions: Zn/EDTA condition not given; read-out: Thrombin Ki

Compound	Ki
CNC(=O)c1ccc2c(=O)n(Cc3ccccc3)c(=O)n(CC(=O)NCc3ccc(C(=N)N)cc3)c2c1 [compound 2018, 3-Benzyl-1-(2-((4-carbamimidoylbenzyl)amino)-2-oxoethyl)-N-methyl-2,4-dioxo-1,2,3,4-tetrahydroquinazoline-7-carboxamide]	> 25000 nM
CCCCn1c(=O)c2ccccc2n(CC(=O)Nc2ccc(NC(C)=O)cc2)c1=O [compound 2020]	> 25000 nM
N=C(N)c1ccc(CNC(=O)Cn2c(=O)n(Cc3ccccc3)c(=O)c3ccc(C(N)=O)cc32)cc1 [compound 2017, ((4-((2-(3-Benzyl-7-carbamoyl-2,4-dioxo-3,4-dihydroquinazolin-1(2H)-yl)acetamido)methyl)phenyl)(imino)methyl)-λ^5-azaneyl Acetate]	> 25000 nM
CCCCCn1c(=O)c2ccccc2n(CC(=O)Nc2ccc(NC(C)=O)cc2)c1=O [compound 2019]	> 25000 nM
N=C(N)c1ccc(CNC(=O)Cn2c(=O)n(Cc3ccccc3)c(=O)c3ccc(C(=O)NC4CCCCC4)cc32)cc1 [compound 2021, 3-Benzyl-1-(2-((4-carbamimidoylbenzyl)amino)-2-oxoethyl)-N-cyclohexyl-2,4-dioxo-1,2,3,4-tetrahydroquinazoline-7-carboxamide]	> 25000 nM

Same assay, conditions: read-out: Thrombin Ki

Compound	Ki
CC(=O)N[C@@H](C(=O)N1CC[C@H]1C(=O)NCc1ccc(C(=N)N)cc1)C1CCCCC1 [compound 1077]	< 500 nM
C[C@H](NC(=O)[C@H]1C[C@H](c2ccccc2)CN1)C(=O)NCc1ccc(C(=N)NO)cc1 [compound 1070]	> 25000 nM
N=C(N)c1ccc(CNC(=O)[C@@H]2CCN2C(=O)[C@H](NCC(N)=O)C2CCCCC2)cc1 [compound 1102, (S)-1-((R)-2-((2-amino-2-oxoethyl)amino)-2-cyclohexylacetyl)-N-(4-carbamimidoylbenzyl)azetidine-2-carboxamide]	< 500 nM
N=C(N)c1ccc(CNC(=O)[C@@H]2CCN2C(=O)[C@H](N)CC2CCCCC2)cc1 [compound 1158]	< 500 nM
C[C@H](NC(=O)[C@H](N)CCc1ccccc1)C(=O)NCc1ccc(C(=N)NO)cc1 [compound 1157, (R)-2-Amino-N—((S)-1-((4-(N-hydroxycarbamimidoyl)benzyl)amino)-1-oxopropan-2-yl)-4-phenylbutanamide Dihydrochloride]	> 25000 nM
C[C@H](NC(=O)[C@H](N)CCc1ccccc1)C(=O)NCc1cc(Cl)ccc1Cl [compound 1192]	> 25000 nM
N=C(N)c1ccc(CNC(=O)[C@@H]2CCN2C(=O)[C@H](NCC(=O)O)C2CC2)cc1 [compound 1028, ((R)-2-((S)-2-((4-carbamimidoylbenzyl)carbamoyl)azetidin-1-yl)-1-cyclopropyl-2-oxoethyl)glycine]	< 500 nM
N=C(N)c1ccc(CNC(=O)[C@@H]2CCN2C(=O)[C@H](NCC(=O)O)c2ccccc2)cc1 [compound 1100]	< 500 nM
C[C@H](NC(=O)[C@H](N)CCc1ccccc1)C(=O)NCCCCNC(=N)N [compound 1010]	> 25000 nM
N=C(N)NCCCNC(=O)[C@@H]1CCN1C(=O)[C@H](N)C1CCCCC1 [compound 1004, (S)-1-((R)-2-Amino-2-cyclohexylacetyl)-N-(3-guanidinopropyl)azetidine-2-carboxamide Hydrochloride]	< 500 nM
CN(CC(=O)NCc1ccc(C(=N)N)cc1)C(=O)[C@H](NCC(=O)O)C1CCCCC1 [compound 1096]	< 500 nM
N=C(N)c1ccc(CNC(=O)[C@@H]2CCN2C(=O)[C@H](N)C2CC2)cc1 [compound 1002, (S)-1-((R)-2-Amino-2-cyclopropylacetyl)-N-(4-carbamimidoylbenzyl)azetidine-2-carboxamide]	< 500 nM
CC(C)N(CC(=O)NCc1ccc(C(=N)N)cc1)C(=O)[C@H](NCC(=O)O)C1CCCCC1 [compound 1117]	< 500 nM
CCOC(=O)NC(=N)c1ccc(CNC(=O)[C@H](C)NC(=O)[C@H]2C[C@H](c3ccccc3)CN2)cc1 [compound 1294, Ethyl (imino(4-(((S)-2-((2R,4R)-4-phenylpyrrolidine-2-carboxamido)propanamido)methyl)phenyl)methyl)carbamate]	> 25000 nM
N=C(N)c1ccc(CNC(=O)[C@@H]2CCN2C(=O)[C@H]2CC3CCCCC3N2)cc1 (some centres unmarked) [compound 1026]	< 500 nM
Cc1nc(N)ccc1CNC(=O)[C@H](C)NC(=O)[C@H]1C[C@@H](c2cccc(CN)c2)CN1 [compound 1291, (2R,4S)—N—((S)-1-(((6-Amino-2-methylpyridin-3-yl)methyl)amino)-1-oxopropan-2-yl)-4-(3-(aminomethyl)phenyl)pyrrolidine-2-carboxamide]	> 25000 nM
C[C@H](NC(=O)[C@H]1C[C@@H](c2ccccc2)CN1)C(=O)NCc1ccc(N)nc1 [compound 1255, (2R,4S)—N—((S)-1-(((6-Aminopyridin-3-yl)methyl)amino)-1-oxopropan-2-yl)-4-phenylpyrrolidine-2-carboxamide]	> 25000 nM
C[C@H](NC(=O)[C@H](N)CCc1ccc(F)cc1)C(=O)NCc1ccc(C(=N)N)cc1 [compound 1047]	< 500 nM
N=C(N)c1ccc(CNC(=O)[C@@H]2CCN2C(=O)[C@H]2CCCN2)cc1 [compound 1003]	< 500 nM
N=C(N)c1ccc(CNC(=O)[C@H]2CCCCN2C(=O)[C@H](NCC(=O)O)C2CCCCC2)cc1 [compound 1154]	< 500 nM
CC(C)(C)[C@@H](N)C(=O)N1CC[C@H]1C(=O)NCc1ccc(C(=N)N)cc1 [compound 1005]	< 500 nM
C[C@H](NC(=O)[C@H](N)CCc1ccccc1)C(=O)NCc1ccc(CN)cc1 [compound 1014]	> 25000 nM
CC(C)(C)OC(=O)N[C@@H](C(=O)N1CCC[C@H]1C(=O)NCc1ccc(C(=N)N)cc1)C1CCCCC1 [compound 1138]	< 500 nM
Cc1cc(N)nc(C)c1CNC(=O)[C@H](C)NC(=O)[C@H](N)CCc1ccccc1 [compound 1213]	> 25000 nM
C[C@H](NC(=O)[C@H]1C[C@H](c2ccccc2)CN1)C(=O)NCc1ccc(N)nc1 [compound 1012]	> 25000 nM
CC[C@H](NC(=O)[C@H](NCC(=O)O)C1CCCCC1)C(=O)NCc1ccc(C(=N)N)cc1 [compound 1106]	< 500 nM
